{"source": "patent US20080200492A1", "about": "“METHODS FOR THE TREATMENT OF ALCOHOL ABUSE, ADDICTION AND DEPENDENCY” (priority 2006, published 2008)", "origin": "cited, not measured here", "system": "golden hamster", "conditions": "cited from earlier work", "data": [{"smiles": "O=c1c(-c2ccc(O)cc2)coc2cc(O[C@@H]3O[C@H](CO)[C@@H](O)[C@H](O)[C@H]3O)ccc12", "note": "[Daidzin]", "values": [{"measurement": "Alcohol drinking, water or food intake", "value": "decreases alcohol drinking in the golden hamster, without producing a decrease in water or food intake"}]}]}
